Reference: patent US10167262B2, “Herbicidal substituted 3-arylpyrazoles” (FMC CORPORATION, priority 2014, dated 2019)

Columns and labels:
Experiment in all cases: Test E pre-/postemergence greenhouse test, plant response rating 0-100
Format in all cases: in vivo
[1] = test system: Brazilian crabgrass (Digitaria horizontalis); settings: scale 0 to 100; for Crabgrass, Brazil plant response rating: Preemergence
Text: (§1) Seeds of plant species selected from corn (Zea mays), soybean (Glycine max), velvetleaf (Abutilon theophrasti), lambsquarters (Chenopodium album), wild poinsettia (Euphorbia heterophylla), palmer pigweed (Amaranthus palmeri), waterhemp (common waterhemp, Amaranthus rudis), surinam grass (Brachiaria decumbens), large (Lg) crabgrass (Digitaria sanguinalis), Brazilian crabgrass (Digitaria horizontalis), fall panicum (Panicum dichotomiflorum), giant foxtail (Setaria faberii), green foxtail (Setaria viridis), goosegrass (Eleusine indica), johnsongrass (Sorghum halepense), ragweed (common ragweed, Ambrosia elatior), barnyardgrass (Echinochloa crus-galli), sandbur (southern sandbur, Cenchrus echinatus), arrowleaf sida (Sida rhombifolia), Italian ryegrass (Lolium multiflorum), dayflower (Virginia (VA) dayflower, Commelina virginica), field bindweed (Convolvulus arvensis), morningglory (Ipomoea coccinea), nightshade (eastern black nightshade, Solanum ptycanthum), kochia (Kochia scoparia), yellow nutsedge (Cyperus esculentus), smartweed (ladysthumb smartweed, Polygonum persicaria), cocklebur (common cocklebur, Xanthium strumarium), and hairy beggarticks (Bidens pilosa), were planted into a silt loam soil and treated preemergence with test chemicals formulated in a non-phytotoxic solvent mixture which included a surfactant.
(§2) At the same time, plants from these crop and weed species and also waterhemp_RES1, (ALS & Triazine resistant common waterhemp, Amaranthus rudis), and waterhemp_RES2, (ALS & HPPD resistant common waterhemp, Amaranthus rudis) were planted in pots containing Redi-Earth® planting medium (Scotts Company, 14111 Scottslawn Road, Marysville, Ohio 43041) comprising spaghnum peat moss, vermiculite, wetting agent and starter nutrients were treated with postemergence applications of test chemicals formulated in the same manner. Plants ranged in height from 2 to 18 cm for postemergence treatments (1- to 4-leaf stage).
(§3) Treated plants and controls were maintained in a greenhouse for 14 to 21 days, after which time all species were compared to controls and visually evaluated. Plant response ratings, summarized in Table E, are based on a scale of 0 to 100 where 0 is no effect and 100 is complete control. A dash (-) response means no test result.

[2] = test system: Italian ryegrass (Lolium multiflorum); settings: scale 0 to 100; for Ryegrass, Italian plant response rating: Preemergence
Text: as §1, §2, §3

[3] = test system: arrowleaf sida (Sida rhombifolia); settings: scale 0 to 100; for pest or weed control at 16 g/ha: 16 g ai/ha; for pest or weed control at 31 g/ha: 31 g ai/ha; for Arrowleaf Sida plant response rating: Preemergence
Text: as §1, §2, §3

[4] = test system: barnyardgrass (Echinochloa crus-galli); settings: scale 0 to 100; for Barnyardgrass plant response rating: Preemergence
Text: as §1, §2, §3

corn (Zea mays) = settings: scale 0 to 100; for Corn plant response rating: Preemergence
Text: as §1, §2, §3

[5] = test system: dayflower (Virginia (VA) dayflower, Commelina virginica); settings: scale 0 to 100; for Dayflower, VA plant response rating: Preemergence
Text: as §1, §2, §3

[6] = test system: fall panicum (Panicum dichotomiflorum); settings: scale 0 to 100; for Panicum, Fall plant response rating: Preemergence
Text: as §1, §2, §3

[7] = test system: hairy beggarticks (Bidens pilosa); settings: scale 0 to 100; for pest or weed control at 16 g/ha: 16 g ai/ha; for Beggarticks plant response rating: Preemergence
Text: as §1, §2, §3

[8] = test system: palmer pigweed (Amaranthus palmeri); settings: scale 0 to 100; for Pigweed, Palmer plant response rating: Preemergence
Text: as §1, §2, §3

[9] = test system: sandbur (southern sandbur, Cenchrus echinatus); settings: scale 0 to 100; for Sandbur plant response rating: Preemergence
Text: as §1, §2, §3

[10] = test system: wild poinsettia (Euphorbia heterophylla); settings: scale 0 to 100; for Poinsettia, Wild plant response rating: Preemergence
Text: as §1, §2, §3

[11] = Sida rhombifolia, post-emergence, Postemergence
[12] = Sida rhombifolia, post-emergence, Postemergence, 62 g ai/ha
[13] = Sida rhombifolia, post-emergence, Postemergence, 125 g ai/ha
[14] = Bidens pilosa, post-emergence, Postemergence
[15] = Bidens pilosa, post-emergence, Postemergence, 125 g ai/ha
[16] = Amaranthus palmeri, post-emergence, Postemergence, 62 g ai/ha
[17] = Amaranthus palmeri, post-emergence, Postemergence, 125 g ai/ha

Clc1cc(Cl)cc(-c2n[nH]cc2C(=NN2CCCC2)c2ccccc2)c1 [Compound 30, N-[[3-(3,5-dichlorophenyl)-1H-pyrazol-4-yl]phenylmethylene]-1-pyrrolidinamine]
pest or weed control at 16 g/ha ([1]; Digitaria horizontalis, post-emergence, Postemergence, 16 g ai/ha, read-out: Plant response rating, Crabgrass, Brazil): 0%
pest or weed control at 31 g/ha ([1]; Digitaria horizontalis, post-emergence, Postemergence, 31 g ai/ha, read-out: Plant response rating, Crabgrass, Brazil): 0%
pest or weed control at 62 g/ha ([1]; Digitaria horizontalis, post-emergence, Postemergence, 62 g ai/ha, read-out: Plant response rating, Crabgrass, Brazil): 0%
pest or weed control at 125 g/ha ([1]; Digitaria horizontalis, post-emergence, Postemergence, 125 g ai/ha, read-out: Plant response rating, Crabgrass, Brazil): 0%
pest or weed control at 250 g/ha ([1]; Digitaria horizontalis, post-emergence, Postemergence, 250 g ai/ha, read-out: Plant response rating, Crabgrass, Brazil): 0%
pest or weed control at 31 g/ha ([2]; Lolium multiflorum, post-emergence, Postemergence, 31 g ai/ha): 0%
pest or weed control at 62 g/ha ([2]; Lolium multiflorum, post-emergence, Postemergence, 62 g ai/ha): 0%
pest or weed control at 125 g/ha ([2]; Lolium multiflorum, post-emergence, Postemergence, 125 g ai/ha): 0%
pest or weed control at 250 g/ha ([2]; Lolium multiflorum, post-emergence, Postemergence, 250 g ai/ha): 5%
pest or weed control at 16 g/ha [3, 11]: 50%
pest or weed control at 31 g/ha [3, 11]: 50%
pest or weed control at 62 g/ha [3, 12]: 70%
pest or weed control at 125 g/ha [3, 13]: 80%
pest or weed control at 250 g/ha ([3]; Sida rhombifolia, post-emergence, Postemergence, 250 g ai/ha): 80%
pest or weed control at 16 g/ha ([4]; Echinochloa crus-galli, post-emergence, Postemergence, 16 g ai/ha): 0%
pest or weed control at 31 g/ha ([4]; Echinochloa crus-galli, post-emergence, Postemergence, 31 g ai/ha): 0%
pest or weed control at 62 g/ha ([4]; Echinochloa crus-galli, post-emergence, Postemergence, 62 g ai/ha): 0%
pest or weed control at 125 g/ha ([4]; Echinochloa crus-galli, post-emergence, Postemergence, 125 g ai/ha): 0%
pest or weed control at 250 g/ha ([4]; Echinochloa crus-galli, post-emergence, Postemergence, 250 g ai/ha): 0%
Corn plant response rating (crop injury, 0 = no effect, 100 = complete kill) at 16 g/ha (corn (Zea mays); Zea mays, post-emergence, Postemergence, 16 g ai/ha): 0%
Corn plant response rating (crop injury, 0 = no effect, 100 = complete kill) at 31 g/ha (corn (Zea mays); Zea mays, post-emergence, Postemergence, 31 g ai/ha): 0%
Corn plant response rating (crop injury, 0 = no effect, 100 = complete kill) at 62 g/ha (corn (Zea mays); Zea mays, post-emergence, Postemergence, 62 g ai/ha): 0%
Corn plant response rating (crop injury, 0 = no effect, 100 = complete kill) at 125 g/ha (corn (Zea mays); Zea mays, post-emergence, Postemergence, 125 g ai/ha): 0%
Corn plant response rating (crop injury, 0 = no effect, 100 = complete kill) at 250 g/ha (corn (Zea mays); Zea mays, post-emergence, Postemergence, 250 g ai/ha): 0%
pest or weed control at 16 g/ha ([5]; Commelina virginica, post-emergence, Postemergence, 16 g ai/ha): 0%
pest or weed control at 31 g/ha ([5]; Commelina virginica, post-emergence, Postemergence, 31 g ai/ha): 0%
pest or weed control at 62 g/ha ([5]; Commelina virginica, post-emergence, Postemergence, 62 g ai/ha): 0%
pest or weed control at 125 g/ha ([5]; Commelina virginica, post-emergence, Postemergence, 125 g ai/ha): 0%
pest or weed control at 250 g/ha ([5]; Commelina virginica, post-emergence, Postemergence, 250 g ai/ha): 0%
pest or weed control at 31 g/ha ([6]; Panicum dichotomiflorum, post-emergence, Postemergence, 31 g ai/ha): 0%
pest or weed control at 62 g/ha ([6]; Panicum dichotomiflorum, post-emergence, Postemergence, 62 g ai/ha): 0%
pest or weed control at 125 g/ha ([6]; Panicum dichotomiflorum, post-emergence, Postemergence, 125 g ai/ha): 0%
pest or weed control at 250 g/ha ([6]; Panicum dichotomiflorum, post-emergence, Postemergence, 250 g ai/ha): 0%
pest or weed control at 16 g/ha [7, 14]: 80%
pest or weed control at 125 g/ha [7, 15]: 85%
pest or weed control at 250 g/ha ([7]; Bidens pilosa, post-emergence, Postemergence, 250 g ai/ha): 100%
pest or weed control at 31 g/ha ([8]; Amaranthus palmeri, post-emergence, Postemergence, 31 g ai/ha): 40%
pest or weed control at 62 g/ha [8, 16]: 100%
pest or weed control at 125 g/ha [8, 17]: 100%
pest or weed control at 250 g/ha ([8]; Amaranthus palmeri, post-emergence, Postemergence, 250 g ai/ha): 100%
pest or weed control at 31 g/ha ([9]; Cenchrus echinatus, post-emergence, Postemergence, 31 g ai/ha): 0%
pest or weed control at 62 g/ha ([9]; Cenchrus echinatus, post-emergence, Postemergence, 62 g ai/ha): 0%
pest or weed control at 125 g/ha ([9]; Cenchrus echinatus, post-emergence, Postemergence, 125 g ai/ha): 0%
pest or weed control at 250 g/ha ([9]; Cenchrus echinatus, post-emergence, Postemergence, 250 g ai/ha): 0%
pest or weed control at 31 g/ha ([10]; Euphorbia heterophylla, post-emergence, Postemergence, 31 g ai/ha, read-out: Plant response rating, Poinsettia, Wild): 0%
pest or weed control at 62 g/ha ([10]; Euphorbia heterophylla, post-emergence, Postemergence, 62 g ai/ha, read-out: Plant response rating, Poinsettia, Wild): 0%
pest or weed control at 125 g/ha ([10]; Euphorbia heterophylla, post-emergence, Postemergence, 125 g ai/ha, read-out: Plant response rating, Poinsettia, Wild): 0%
pest or weed control at 250 g/ha ([10]; Euphorbia heterophylla, post-emergence, Postemergence, 250 g ai/ha, read-out: Plant response rating, Poinsettia, Wild): 0%

CCn1cc(C(=O)c2ccccc2)c(-c2cc(Cl)cc(Cl)c2)n1 [Compound 31, [3-(3,5-dichlorophenyl)-1-ethyl-1H-pyrazol-4-yl]phenylmethanone]
Crabgrass, Brazil plant response rating ([1]; 62 g ai/ha): 0
Crabgrass, Brazil plant response rating ([1]; 125 g ai/ha): 0
Crabgrass, Brazil plant response rating ([1]; 250 g ai/ha): 0
Crabgrass, Brazil plant response rating ([1]; 500 g ai/ha): 50
Ryegrass, Italian plant response rating ([2]; 62 g ai/ha): 0
Ryegrass, Italian plant response rating ([2]; 125 g ai/ha): 0
Ryegrass, Italian plant response rating ([2]; 250 g ai/ha): 0
Ryegrass, Italian plant response rating ([2]; 500 g ai/ha): 0
Arrowleaf Sida plant response rating ([3]; 62 g ai/ha): 30
Arrowleaf Sida plant response rating ([3]; 125 g ai/ha): 80
Arrowleaf Sida plant response rating ([3]; 250 g ai/ha): 90
Arrowleaf Sida plant response rating ([3]; 500 g ai/ha): 95
pest or weed control at 16 g/ha [3, 11]: 55%
pest or weed control at 31 g/ha [3, 11]: 65%
pest or weed control at 62 g/ha [3, 12]: 80%
pest or weed control at 125 g/ha [3, 13]: 90%
Barnyardgrass plant response rating ([4]; 62 g ai/ha): 0
Barnyardgrass plant response rating ([4]; 125 g ai/ha): 0
Barnyardgrass plant response rating ([4]; 250 g ai/ha): 0
Barnyardgrass plant response rating ([4]; 500 g ai/ha): 0
Corn plant response rating (corn (Zea mays); 62 g ai/ha): 0
Corn plant response rating (corn (Zea mays); 125 g ai/ha): 0
Corn plant response rating (corn (Zea mays); 250 g ai/ha): 0
Corn plant response rating (corn (Zea mays); 500 g ai/ha): 0
Dayflower, VA plant response rating ([5]; 62 g ai/ha): 0
Dayflower, VA plant response rating ([5]; 125 g ai/ha): 0
Dayflower, VA plant response rating ([5]; 250 g ai/ha): 0
Dayflower, VA plant response rating ([5]; 500 g ai/ha): 0
Panicum, Fall plant response rating ([6]; 62 g ai/ha): 0
Panicum, Fall plant response rating ([6]; 125 g ai/ha): 0
pest or weed control at 16 g/ha [7, 14]: 70%
pest or weed control at 31 g/ha ([7]; Bidens pilosa, post-emergence, Postemergence, 31 g ai/ha): 80%
pest or weed control at 62 g/ha ([7]; Bidens pilosa, post-emergence, Postemergence, 62 g ai/ha): 85%
pest or weed control at 125 g/ha [7, 15]: 85%
Beggarticks plant response rating ([7]; 62 g ai/ha): 0
Beggarticks plant response rating ([7]; 125 g ai/ha): 0
Beggarticks plant response rating ([7]; 250 g ai/ha): 0
Beggarticks plant response rating ([7]; 500 g ai/ha): 50
pest or weed control at 62 g/ha [8, 16]: 60%
pest or weed control at 125 g/ha [8, 17]: 75%
Pigweed, Palmer plant response rating ([8]; 62 g ai/ha): 0
Pigweed, Palmer plant response rating ([8]; 125 g ai/ha): 70
Pigweed, Palmer plant response rating ([8]; 250 g ai/ha): 98
Pigweed, Palmer plant response rating ([8]; 500 g ai/ha): 100
Sandbur plant response rating ([9]; 62 g ai/ha): 0
Sandbur plant response rating ([9]; 125 g ai/ha): 0
Sandbur plant response rating ([9]; 250 g ai/ha): 0
Sandbur plant response rating ([9]; 500 g ai/ha): 0
Poinsettia, Wild plant response rating ([10]; 62 g ai/ha): 0
Poinsettia, Wild plant response rating ([10]; 125 g ai/ha): 0
Poinsettia, Wild plant response rating ([10]; 250 g ai/ha): 0
Poinsettia, Wild plant response rating ([10]; 500 g ai/ha): 0
